The target in this assay is human RIP1 kinase domain (2-375) (Homo sapiens (Human), UniProt Q13546). In words: RIP1 kinase inhibition assay (biochemical, Transcreener ADP assay). The note with it: tight-binding apparent inhibition constant (Ki app, Morrison equation), 50 nM enzyme, 50 uM ATP, 2 hours incubation, fluorescence polarization. As to the method: Example 45: RIP1 Kinase Inhibition Assays (Biochemical Assay)
The compounds of the present invention were tested for their capacity to inhibit RIP1K activity as described below.
The ability of the receptor interacting protein kinase (RIPK1) to catalyze the hydrolysis of adenosine-5′-triphosphate (ATP) is monitored using the Transcreener ADP (adenosine-5′-diphosphate) assay (BellBrook Labs). Purified human RIP1 kinase domain (2-375) (50 nM) derived from a baculovirus-infected insect cell expression system is incubated with test compounds for 2 hours in 50 mM Hepes buffer (pH 7.5) containing 30 mM MgCl2, 1 mM dithiothreitol, 50 uM ATP, 0.002% Brij-35, and 0.5% dimethyl sulfoxide (DMSO). Reactions are quenched by the addition of 1× Bell Brooks Stop buffer B (20 mM Hepes (ph 7.5), 40 mM ethylenediaminetetraacetic acid and 0.02% Brij-35) containing an additional 12 mM EDTA and 55 ug/mL ADP2 antibody and 4 nM ADP-AlexaFluor® 633 tracer. The tracer bound to the antibody is displaced by the ADP generated during the RIP1K reaction, which causes a decrease in fluorescence polarization that is measured by laser excitation at 633 nm with a FP microplate reader M1000. Fractional activity was plotted against test article concentration. Using Genedata Screener software (Genedata; Basel, Switzerland), the data were fit to the tight-binding apparent inhibition constant (Ki^app) Morrison equation [Williams, J. W. and Morrison, J. F. (1979) The kinetics of reversible tight-binding inhibition. Methods Enzymol 63: 437-67]. The following equation was used to calculate fractional activity and Ki^app: […]
where [E]T and [I]T are the total concentrations of active enzyme and test article, respectively. […]

Like-named read-outs stand apart in the source and are kept apart here.

Chain of human RIP1 kinase domain (2-375) (Q13546 2-375): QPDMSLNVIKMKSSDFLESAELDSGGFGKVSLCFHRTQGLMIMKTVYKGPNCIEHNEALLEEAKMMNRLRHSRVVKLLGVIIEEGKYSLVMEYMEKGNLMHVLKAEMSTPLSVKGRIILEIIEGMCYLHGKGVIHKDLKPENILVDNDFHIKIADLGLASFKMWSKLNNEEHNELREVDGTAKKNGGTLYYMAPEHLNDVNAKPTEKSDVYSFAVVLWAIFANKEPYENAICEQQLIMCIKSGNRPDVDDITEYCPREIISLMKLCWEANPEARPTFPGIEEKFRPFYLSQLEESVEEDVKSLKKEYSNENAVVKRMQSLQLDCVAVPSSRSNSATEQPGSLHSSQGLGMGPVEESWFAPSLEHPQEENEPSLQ

`CN1C(=O)[C@@H](NC(=O)c2nc3n(n2)[C@H](c2ccccc2)C[C@@H]3F)CCn2nccc21` (mixture of isomers) [Example #29, Rac-(5S,7S)-7-fluoro-5-phenyl-N-[(6S)-4-methyl-5-oxo-7,8-dihydro-6H-pyrazolo[1,5-a][1,3]diazepin-6-yl]-6,7-dihydro-5H-pyrrolo[1,2-b][1,2,4]triazole-2-carboxamide]: the Ki (RIP1 Ki) was 0.043 µM.

As to `O=C(N[C@H]1CCc2cc(F)cc(F)c2NC1=O)c1nc2n(n1)[C@@H](c1ccccc1)C[C@@H]2F` (mixture of isomers) [Example #31, Rac-(5R,7S)-7-fluoro-5-phenyl-N-[(3S)-7,9-difluoro-2-oxo-1,3,4,5-tetrahydro-1-benzazepin-3-yl]-6,7-dihydro-5H-pyrrolo[1,2-b][1,2,4]triazole-2-carboxamide], the Ki (RIP1 Ki) came out at 0.015 µM.

Regarding `CN1C(=O)[C@@H](NC(=O)c2nc3n(n2)[C@@H](c2ccccc2)C[C@@H]3F)COc2ccccc21` (mixture of isomers) [Example #32, rac-(5R,7S)-7-fluoro-5-phenyl-N-[(3S)-5-methyl-4-oxo-2,3-dihydro-1,5-benzoxazepin-3-yl]-6,7-dihydro-5H-pyrrolo[1,2-b][1,2,4]triazole-2-carboxamide], under “RIP1 Ki”, the Ki was determined as 0.014 µM.

`CN1C(=O)[C@@H](NC(=O)c2nc3n(n2)[C@H](c2ccccc2)C[C@@H]3F)CCn2nccc21` (racemic) [Example #38, rac-(5S,7S)-7-fluoro-5-phenyl-N-[rac-(6S)-4-methyl-5-oxo-7,8-dihydro-6H-pyrazolo[1,5-a][1,3]diazepin-6-yl]-6,7-dihydro-5H-pyrrolo[1,2-b][1,2,4]triazole-2-carboxamide]: the Ki (RIP1 Ki) is 0.024 µM.

In the case of `Cc1cc2n(n1)CC[C@H](NC(=O)c1nc3n(n1)[C@H](c1ccccc1)C[C@@H]3F)C(=O)N2C` (racemic) [Example #39, rac-(5S,7S)-7-fluoro-5-phenyl-N-[rac-(6S)-2,4-dimethyl-5-oxo-7,8-dihydro-6H-pyrazolo[1,5-a][1,3]diazepin-6-yl]-6,7-dihydro-5H-pyrrolo[1,2-b][1,2,4]triazole-2-carboxamide], the Ki (RIP1 Ki) came out at 0.027 µM.

For `Cc1cc2n(n1)CC[C@H](NC(=O)c1nc3n(n1)[C@@H](c1ccccc1)CC3(F)F)C(=O)N2C` (racemic) [Example #41, rac-(5R)-7,7-difluoro-5-phenyl-N-[rac-(6S)-2,4-dimethyl-5-oxo-7,8-dihydro-6H-pyrazolo[1,5-a][1,3]diazepin-6-yl]-5,6-dihydropyrrolo[1,2-b][1,2,4]triazole-2-carboxamide], the Ki (RIP1 Ki) worked out at 0.035 µM.

On to `CN1C(=O)[C@@H](NC(=O)c2nc3n(n2)[C@@H](c2ccccc2)CC3(F)F)COc2ccccc21` (racemic) [Example #42, rac-(5R)-7,7-difluoro-5-phenyl-N-[rac-(3S)-5-methyl-4-oxo-2,3-dihydro-1,5-benzoxazepin-3-yl]-5,6-dihydropyrrolo[1,2-b][1,2,4]triazole-2-carboxamide], for which the Ki (RIP1 Ki) turned out to be 0.005 µM.

On to `CN1C(=O)[C@@H](NC(=O)c2nc3n(n2)[C@@H](c2ccccc2)CC3(F)F)CCn2nccc21` (racemic) [Example #43, rac-(5R)-7,7-difluoro-5-phenyl-N-[rac-(6S)-4-methyl-5-oxo-7,8-dihydro-6H-pyrazolo[1,5-a][1,3]diazepin-6-yl]-5,6-dihydropyrrolo[1,2-b][1,2,4]triazole-2-carboxamide], for which the Ki (RIP1 Ki) came to 0.028 µM.

For the compound `CN1C(=O)[C@@H](NC(=O)c2nc3n(n2)CC[C@H]3c2ccccc2F)CCn2nccc21` (single isomer, unassigned) [Example #7], for the setting “read-out: RIP1 Ki”, the Ki amounted to 0.022 µM.

With `Cc1cc2n(n1)CC[C@H](NC(=O)c1nc3n(n1)CC[C@H]3c1ccccc1F)C(=O)N2C` (single isomer, unassigned) [Example #8], the Ki (read-out: RIP1 Ki) was 0.018 µM.

Regarding `COc1cc2c(cn1)N(C)C(=O)[C@@H](NC(=O)c1nc3n(n1)[C@H](c1ccccc1F)CC3)CC2` (single isomer, unassigned) [Example #11], the Ki (read-out: RIP1 Ki) came out at 0.011 µM.

Consider `O=C(N[C@H]1CCc2ncccc2NC1=O)c1nc2n(n1)[C@@H](c1ccccc1)CC2` (single isomer, unassigned) [Example #13], for which the Ki (read-out: RIP1 Ki) stood at 0.041 µM.

Take `O=C(N[C@H]1CCc2ncccc2NC1=O)c1nc2n(n1)[C@H](c1ccccc1F)CC2` (single isomer, unassigned) [Example #14]: the Ki (read-out: RIP1 Ki) came out at 0.019 µM.

`CN1C(=O)[C@@H](NC(=O)c2nc3n(n2)CC[C@H]3c2ccccc2F)CCc2ncccc21` (single isomer, unassigned) [Example #15]: under “read-out: RIP1 Ki”, the Ki was 0.042 µM.

Turning to `CN1C(=O)[C@@H](NC(=O)c2nc3n(n2)[C@@H](c2ccccc2F)CC3)CCc2ncccc21` (single isomer, unassigned) [Example #16], the Ki (read-out: RIP1 Ki) came to 0.029 µM.

Regarding `CN1C(=O)[C@@H](NC(=O)c2nc3n(n2)CC[C@H]3c2ccccc2)CCc2ncccc21` (single isomer, unassigned) [Example #17], the Ki (read-out: RIP1 Ki) worked out at 0.037 µM.

Turning to `CN1C(=O)[C@@H](NC(=O)c2nc3n(n2)[C@H](c2ccccc2)CC3)CCc2ncccc21` (single isomer, unassigned) [Example #18], the Ki (read-out: RIP1 Ki) came out at 0.044 µM.

Turning to `CN1C(=O)[C@@H](NC(=O)c2ncn(Cc3ccccc3)n2)CCc2nn(C)cc21` (single isomer, unassigned) [Example #20], for the setting “read-out: RIP1 Ki”, the Ki turned out to be 0.046 µM.

For `CN1C(=O)[C@@H](NC(=O)c2ncn(Cc3ccccc3F)n2)CCc2nn(C)cc21` (single isomer, unassigned) [Example #21], the Ki (read-out: RIP1 Ki) is 0.026 µM.

Regarding `CN1C(=O)[C@@H](NC(=O)c2ncn(Cc3ccccc3)n2)CCc2c1cnn2C` (single isomer, unassigned) [Example #22], the Ki (read-out: RIP1 Ki) was determined as 0.014 µM.

Consider `CN1C(=O)[C@@H](NC(=O)c2ncn(Cc3ccccc3F)n2)CCc2c1cnn2C` (single isomer, unassigned) [Example #23], for which the Ki (read-out: RIP1 Ki) stood at 0.013 µM.

As to `CN1C(=O)[C@@H](NC(=O)c2nc3n(n2)[C@H](c2ccccc2)C[C@@H]3F)COc2ccccc21` (single isomer, unassigned) [Example #30], the Ki (RIP1 Ki) stood at 0.018 µM.

As for `O=C(N[C@H]1CCc2cc(F)cc(F)c2NC1=O)c1nc2n(n1)[C@@H](c1ccccc1)C[C@H]2F` (single isomer, unassigned) [Example #33], the Ki (read-out: RIP1 Ki) came out at 0.013 µM.

As to `O=C(N[C@H]1CCc2cc(F)cc(F)c2NC1=O)c1nc2n(n1)[C@H](c1ccccc1)C[C@H]2F` (single isomer, unassigned) [Example #34], the Ki (read-out: RIP1 Ki) was 0.031 µM.

As for `CN1C(=O)[C@@H](NC(=O)c2nc3n(n2)[C@H](c2ccccc2)C[C@H]3F)COc2ccccc21` (single isomer, unassigned) [Example #35], under “read-out: RIP1 Ki”, the Ki stood at 0.015 µM.

For the compound `CN1C(=O)[C@@H](NC(=O)c2nc3n(n2)[C@@H](c2ccccc2)C[C@@H]3F)CCn2nccc21` (single isomer, unassigned) [Example #36], under “read-out: RIP1 Ki”, the Ki was 0.032 µM.

With `Cc1cc2n(n1)CC[C@H](NC(=O)c1nc3n(n1)[C@@H](c1ccccc1)C[C@@H]3F)C(=O)N2C` (single isomer, unassigned) [Example #37], the Ki (read-out: RIP1 Ki) was determined as 0.03 µM.

On to `CN1C(=O)[C@@H](NC(=O)c2nc3n(n2)[C@H](c2ccccc2)C[C@@H]3F)COc2ccccc21` (single isomer, unassigned) [Example #40], for which the Ki (RIP1 Ki) was found to be 0.005 µM.

With `CCC(F)(F)[C@@H]1CCc2nc(C(=O)N[C@H]3COc4ccccc4N(C)C3=O)nn21` (single isomer, unassigned) [Example #44], the Ki (read-out: RIP1 Ki) stood at 0.007 µM.

With `CN1C(=O)[C@@H](NC(=O)c2cc3c(cn2)cnn3CC(C)(F)F)COc2ccccc21` [Example #2, 1-(2,2-difluoropropyl)-N-[(3S)-5-methyl-4-oxo-2,3-dihydro-1,5-benzoxazepin-3-yl]pyrazolo[4,3-c]pyridine-6-carboxamide], the Ki (read-out: RIP1 Ki) came to 0.029 µM.

Regarding `CN1C(=O)[C@@H](NC(=O)c2ncc3cnn(CC(C)(F)F)c3n2)COc2ccccc21` [Example #3, 1-(2,2-difluoropropyl)-N-[(3S)-5-methyl-4-oxo-2,3-dihydro-1,5-benzoxazepin-3-yl]pyrazolo[3,4-d]pyrimidine-6-carboxamide], the Ki (read-out: RIP1 Ki) came to 0.035 µM.

Turning to `CN1C(=O)[C@@H](NC(=O)c2ncc3cnn(C4CC4)c3n2)COc2ccccc21` [Example #4, 1-cyclopropyl-N-[(3S)-5-methyl-4-oxo-2,3-dihydro-1,5-benzoxazepin-3-yl]pyrazolo[3,4-d]pyrimidine-6-carboxamide], the Ki (read-out: RIP1 Ki) was determined as 0.022 µM.

Take `O=C(N[C@H]1CCc2cc(F)cc(F)c2NC1=O)c1cc2n(n1)CCOC2c1ccccc1` (stereo partly drawn) [Example #5, 4-phenyl-N-[(3S)-7,9-difluoro-2-oxo-1,3,4,5-tetrahydro-1-benzazepin-3-yl]-6,7-dihydro-4H-pyrazolo[5,1-c][1,4]oxazine-2-carboxamide]: the Ki (read-out: RIP1 Ki) stood at 0.011 µM.
